Results reported in US20120027687A1, “FATTY ACID PROTEIN KINASE C ACTIVATORS AND ANTICOAGULANT FOR THE TREATMENT OF STROKE” (priority 2010, published 2012).

How the values were obtained:
[1] = tested on: SH-SY5Y neuroblastoma cells; assay: Cell survival and proliferation (alamar Blue, CyQuant); format: cell-based, human; details: alamar Blue and CyQuant staining
Experimental: Aβ Measurement and Cell Viability Assay. Aβ was measured using an Aβ 1-42 human fluorimetric ELISA kit (Invitrogen) according to the manufacturer's instructions. Results were measured in a Biotek Synergy HT microplate reader. AlamarBlue and CyQuant NF (Invitrogen) according to the manufacturer's instructions.

TACE = TACE activity in neuronal cells; format: cell-based, human, mouse; details: SH-SY5Y cells, N2a cells, primary neurons from rat hippocampus
Experimental: TACE Assay. TACE was measured by incubating 5 μl cell homogenate, 3 μl buffer (50 mM Tris-HCl 7.4 plus 25 mM NaCl plus 4% glycerol), and 1 μl of 100 μM TACE substrate (Aβz-[…]-DPa) (Calbiochem) for 20 min at 37° C. 1.5-ml polypropylene centrifuge tubes. Jin et al., Anal. Biochem. (2002), vol. 302, pp. 269-275. The reaction was stopped by cooling to 4° C. The samples were diluted to 1 ml and the fluorescence was rapidly measured (ex=320 nm, em=420 nm) in a Spex Fluorolog 2 spectrofluorometer.

PKC = PKC activation over time in hippocampal primary neurons; format: cell-based, rat
Experimental: Cell culture. Rat hippocampal H19-7/IGF-IR cells (ATCC, Manassas, Va.) were plated onto poly-L-lysine coated plates and grown at 35° C. in DMEM/10% FCS for several days until about 50% coverage was obtained. The cells were then induced to differentiate into a neuronal phenotype by replacing the medium with 5 ml N2 medium containing 10 ng/ml basic fibroblast growth factor at 39° C. and grown in T-75 flasks at 37° C. Human SH-SY5Y neuroblastoma cells (ATCC) were cultured in 45% F12K/45% MEM/10% FCS. Mouse N2A neuroblastoma cells were cultured in DMEM/10% FCS without glutamine. Rat hippocampal neurons from 18-day-old embryonic Sprague Dawley rat brains were plated on 12- or 96-well plates coated with poly-D-lysine (Sigma-Aldrich, St. Louis, Mo.) in B-27 neurobasal medium containing 0.5 mM glutamine and 25 μM glutamate (Invitrogen, Carlsbad, Calif.) and cultured for three days in the medium without glutamate. The neuronal cells were grown under 5% CO2 in an incubator maintained at 37° C. for 14 days.
(§1) Protein kinase C assay. […] 0.5 Ci [^γ32P]ATP was added and ^32P-phosphoprotein formation was measured by adsorption onto phosphocellulose as described previously. […] PKC activity was measured in the absence of diacylglycerol and phosphatidylserine and PKC δ, ε, η, and μ were measured in the absence of added EGTA and CaCl2, as described by Kanno et al. (J. Lipid Res. 2006, vol. 47, pp. 1146-1150). […]

PKCα = target: T1, PKCα (Homo sapiens, UniProt P17252); assay: PKC assay with PKCα; format: biochemical; details: data not shown
T1 construct: purchased Calbiochem
Experimental: PKC assay. Recombinant PKC (1 ng of PKCα or PKCε isoform) was mixed with BR-101 (DCP-LA) in the presence of 10 micromolar histones, 5 mM CaCl2, 1.2 μg/μl phosphatidyl-L-serine, 0.18 μg/μl 1,2-dioctanoyl-sn-glycerol (DAG), 10 mM MgCl2, 20 mM HEPES (pH 7.4), 0.8 mM EDTA, 4 mM EGTA, 4% glycerol, 8 μg/ml aprotinin, 8 μg/ml leupeptin, and 2 mM benzamidine. 0.5 micro Ci[^γ32P]ATP was added. The incubation mixture was incubated for 15 min at 37 degrees in a total volume of 10 microliters. The reaction was stopped by spotting the reaction mixtures on 1×2 cm strips of cellulose phosphate paper (Whatman P81) and immediately washing twice for 1 hr in 0.5% H3PO4. The cellulose phosphate strips were counted in a scintillation counter. In some experiments, phosphatidylserine, diacylglycerol, and/or calcium were removed.
as §1
To determine their PKC isozyme specificity, fatty acid derivatives were preincubated with purified PKC for five minutes and the PKC activity was measured radiometrically.

PKCε = target: T2, PKCε (Homo sapiens, UniProt Q02156); details: cited from earlier work
T2 construct: purchased Calbiochem
T2 sequence (Q02156 1-737): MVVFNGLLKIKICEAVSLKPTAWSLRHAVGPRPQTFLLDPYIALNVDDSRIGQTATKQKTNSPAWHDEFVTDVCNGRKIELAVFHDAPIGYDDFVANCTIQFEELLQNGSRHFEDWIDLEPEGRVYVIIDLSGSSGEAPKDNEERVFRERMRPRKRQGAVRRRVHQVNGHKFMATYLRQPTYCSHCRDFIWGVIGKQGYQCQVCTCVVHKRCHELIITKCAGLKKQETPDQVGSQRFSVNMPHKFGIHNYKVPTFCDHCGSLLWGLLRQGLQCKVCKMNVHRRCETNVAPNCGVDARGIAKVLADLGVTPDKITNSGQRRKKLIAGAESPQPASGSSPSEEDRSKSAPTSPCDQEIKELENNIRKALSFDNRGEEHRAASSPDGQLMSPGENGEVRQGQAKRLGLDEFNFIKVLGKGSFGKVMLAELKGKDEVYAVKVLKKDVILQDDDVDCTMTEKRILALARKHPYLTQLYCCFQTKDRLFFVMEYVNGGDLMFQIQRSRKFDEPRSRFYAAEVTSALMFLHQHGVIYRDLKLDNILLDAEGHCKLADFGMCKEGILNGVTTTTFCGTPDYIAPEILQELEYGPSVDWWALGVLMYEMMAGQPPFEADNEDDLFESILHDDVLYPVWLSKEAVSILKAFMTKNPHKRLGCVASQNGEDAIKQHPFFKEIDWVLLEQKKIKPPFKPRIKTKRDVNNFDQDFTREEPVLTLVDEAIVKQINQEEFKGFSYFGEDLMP

## CCCCCC1CC1CC1CC1CCCCCCCC(=O)O (stereo not shown) [BR-101, 2-[(2-pentylcyclopropyl)methyl]cyclopropaneoctanoic acid]
[1]
  effect on cell survival: no effect
  effect on proliferation: no effect
TACE
  TACE activity: small increases
PKC
  duration of elevated PKC: remained elevated for at least four hours
PKCα; 50-100 μM
  effect on PKCα at higher concentrations: activated
PKCα
  effect on PKCα: not affected
PKCε
  concentration of maximal effect on PKCε: 100 nM
